Source: US6979686B1, “Substituted pyrazoles as p38 kinase inhibitors” (Pharmacia Corporation, priority 2001, dated 2005)

Biological target: T1, human p38 kinase alpha (Homo sapiens, UniProt Q16539)
T1 construct: GST (N, cleaved yes); made in house; host or cells: E. coli DH10B
Assay: p38 kinase in vitro assay, phosphorylation of biotinylated PHAS-I with 32P-ATP
Type: biochemical
Conditions: @ 10.0 uM

T1 sequence (Q16539 whole entry): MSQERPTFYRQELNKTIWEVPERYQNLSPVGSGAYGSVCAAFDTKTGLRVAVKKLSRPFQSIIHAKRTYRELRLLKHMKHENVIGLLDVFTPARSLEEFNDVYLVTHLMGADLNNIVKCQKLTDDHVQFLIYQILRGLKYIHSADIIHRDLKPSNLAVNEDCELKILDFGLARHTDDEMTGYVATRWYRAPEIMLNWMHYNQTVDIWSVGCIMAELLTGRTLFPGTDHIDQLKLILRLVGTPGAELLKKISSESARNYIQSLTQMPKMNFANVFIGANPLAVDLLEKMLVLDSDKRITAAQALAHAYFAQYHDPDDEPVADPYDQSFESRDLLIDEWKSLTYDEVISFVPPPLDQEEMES

SMILES | P38 alpha kinase IC50, uM or % inhib @ conc. (uM): % inhib
Cc1c(-c2ccncc2)c(-c2ccc(F)cc2)nn1CC(=O)Nc1ccc(Cl)nc1 [Example B-2415] | 94.0% @
Cc1c(-c2ccncc2)c(-c2ccc(F)cc2)nn1CC(=O)Nc1ccccc1 [Example B-2416] | 85.0% @
Cc1c(-c2ccncc2)c(-c2ccc(F)cc2)nn1CC(=O)Nc1ccc(Cl)cc1 [Example B-2418] | 88.0% @
Cc1c(-c2ccncc2)c(-c2ccc(F)cc2)nn1CC(=O)Nc1ccccc1C(F)(F)F [Example B-2419] | 86.0% @
CCc1cccc(CC)c1NC(=O)Cn1nc(-c2ccc(F)cc2)c(-c2ccncc2)c1C [Example B-2420] | 70.0% @
Cc1c(-c2ccncc2)c(-c2ccc(F)cc2)nn1CC(=O)Nc1c(Cl)cccc1Cl [Example B-2421] | 89.0% 2
Cc1c(-c2ccncc2)c(-c2ccc(F)cc2)nn1CC(=O)Nc1ccccc1Cl [Example B-2422] | 90.0% @
Cc1cccc(NC(=O)Cn2nc(-c3ccc(F)cc3)c(-c3ccncc3)c2C)c1 [Example B-2424] | 86.0% @

Continued, values first:

P38 alpha kinase IC50, uM or % inhib @ conc. (uM): % inhib | SMILES
79.0% @ | Cc1c(-c2ccncc2)c(-c2ccc(F)cc2)nn1CC(=O)Nc1cc(C(F)(F)F)cc(C(F)(F)F)c1 [Example B-2425]
88.0% @ | Cc1c(-c2ccncc2)c(-c2ccc(F)cc2)nn1CC(=O)Nc1cccc(Br)c1 [Example B-2426]
87.0% @ | Cc1c(-c2ccncc2)c(-c2ccc(F)cc2)nn1CC(=O)Nc1ccc(C2CCCCC2)cc1 [Example B-2427]
82.0% @ | CSc1ccccc1NC(=O)Cn1nc(-c2ccc(F)cc2)c(-c2ccncc2)c1C [Example B-2428]
92.0% @ | Cc1c(-c2ccncc2)c(-c2ccc(F)cc2)nn1CC(=O)Nc1cccc(F)c1 [Example B-2429]
90.0% @ | Cc1c(-c2ccncc2)c(-c2ccc(F)cc2)nn1CC(=O)Nc1cc([N+](=O)[O-])cc([N+](=O)[O-])c1 [Example B-2430]
85.0% 2 | COc1ccc(OC)c(NC(=O)Cn2nc(-c3ccc(F)cc3)c(-c3ccncc3)c2C)c1 [Example B-2431]
86.0% 2 | Cc1c(-c2ccncc2)c(-c2ccc(F)cc2)nn1CC(=O)Nc1ccccc1F [Example B-2432]
94.0% @ | Cc1c(-c2ccncc2)c(-c2ccc(F)cc2)nn1CC(=O)Nc1ccccc1C(C)C [Example B-2433]
92.0% @ | Cc1c(-c2ccncc2)c(-c2ccc(F)cc2)nn1CC(=O)Nc1ccccc1Cc1ccccc1 [Example B-2434]
84.0% @ | Cc1c(-c2ccncc2)c(-c2ccc(F)cc2)nn1CC(=O)Nc1ccccc1C(C)(C)C [Example B-2435]
80.0% @ | CCCCCCOc1ccc(NC(=O)Cn2nc(-c3ccc(F)cc3)c(-c3ccncc3)c2C)cc1 [Example B-2436]
82.0% @ | Cc1c(-c2ccncc2)c(-c2ccc(F)cc2)nn1CC(=O)Nc1ccc(OCc2ccccc2)cc1 [Example B-2437]
75.0% @ | Cc1c(-c2ccncc2)c(-c2ccc(F)cc2)nn1CC(=O)Nc1cc(F)cc(F)c1 [Example B-2438]
81.0% @ | Cc1c(-c2ccncc2)c(-c2ccc(F)cc2)nn1CC(=O)Nc1ccc(C(F)(F)F)cc1 [Example B-2439]
77.0% @ | CCCCNS(=O)(=O)c1cccc(NC(=O)Cn2nc(-c3ccc(F)cc3)c(-c3ccncc3)c2C)c1 [Example B-2440]
86.0% @ | Cc1c(-c2ccncc2)c(-c2ccc(F)cc2)nn1CC(=O)NCC(=O)Nc1ccccc1 [Example B-2441]
84.0% @ | Cc1ccc(C)c(C(=O)c2ccccc2NC(=O)Cn2nc(-c3ccc(F)cc3)c(-c3ccncc3)c2C)c1 [Example B-2443]
75.0% @ | Cc1c(-c2ccncc2)c(-c2ccc(F)cc2)nn1CC(=O)Nc1ccc(OCCOc2ccccc2)cc1 [Example B-2448]
86.0% @ | Cc1c(-c2ccncc2)c(-c2ccc(F)cc2)nn1CC(=O)Nc1ccccc1Oc1ccc(Cl)cc1 [Example B-2449]
87.0% @ | CCOC(=O)c1cc(-c2ccc(NC(=O)Cn3nc(-c4ccc(F)cc4)c(-c4ccncc4)c3C)cc2)oc1C [Example B-2450]
87.0% @ | Cc1c(-c2ccncc2)c(-c2ccc(F)cc2)nn1CC(=O)Nc1ccccc1C(=O)NC1CCCCC1 [Example B-2451]
89.0% @ | CCCCCCCOc1ccc(NC(=O)Cn2nc(-c3ccc(F)cc3)c(-c3ccncc3)c2C)cc1 [Example B-2452]
88.0% @ | Cc1c(-c2ccncc2)c(-c2ccc(F)cc2)nn1CC(=O)Nc1ccccc1C(=O)OC(C)C [Example B-2454]
87.0% @ | Cc1c(-c2ccncc2)c(-c2ccc(F)cc2)nn1CC(=O)Nc1ccc(-n2ccc(C(F)(F)F)n2)cc1 [Example B-2455]
86.0% @ | Cc1c(-c2ccncc2)c(-c2ccc(F)cc2)nn1CC(=O)Nc1ccccc1C(=O)NC(C)c1ccccc1 (stereo not drawn) [Example B-2456]
82.0% @ | Cc1c(-c2ccncc2)c(-c2ccc(F)cc2)nn1CC(=O)Nc1cccc(SC(F)(F)F)c1 [Example B-2459]
80.0% @ | Cc1c(-c2ccncc2)c(-c2ccc(F)cc2)nn1CC(=O)Nc1ccccc1SCCCc1ccccc1 [Example B-2460]
67.0% @ | Cc1c(-c2ccncc2)c(-c2ccc(F)cc2)nn1CC(=O)Nc1ccc(CSc2ccc(Cl)cc2)cc1 [Example B-2461]

Same assay, conditions: read-out: P38 alpha kinase IC50

SMILES | IC50 [nM]
COCC(=O)N[C@H]1CC[C@@H](C2=NN=C(c3ccc(Cl)cc3)C2c2ccncc2)CC1 (stereo partly drawn) [Example C-96, 5-cis-[4-N-(METHOXYACETYL)AMINOCYCLOHEXYL]-4-(4-PYRIDYL)-3-(4-CHLOROPHENYL)PYRAZOLE] | 77
N[C@H]1CC[C@@H](c2[nH]nc(-c3ccc(C(F)(F)F)cc3)c2-c2ccncc2)CC1 [Example C-101, 5-cis-(4-AMINOCYCLOHEXYL)-4-(4-PYRIDYL)-3-[4-(TRIFLUOROMETHYL)PHENYL]PYRAZOLE] | 83
CN(C)[C@H]1CC[C@@H](c2[nH]nc(-c3ccc(C(F)(F)F)cc3)c2-c2ccncc2)CC1 [Example C-102, 5-cis-(4-N,N-DIMETHYLAMINOCYCLOHEXYL)-4-(4-PYRIDYL)-3-[4-(TRIFLUOROMETHYL)PHENYL]PYRAZOLE] | 290

System: TNF-α, U937 human histiocytic lymphoma cell line
Assay: LPS stimulation of TNF production by U937 cells
Type: cell-based
Conditions: @ 1.0 uM; TNF production in human U937 cells stimulated with LPS
Procedure: Maintenance and Differentiation of the U937 Human Histiocytic Lymphoma Cell Line:
Fifty million cells in 100 ml media were induced to terminal monocytic differentiation by 24 hour incubation with 20 ng/ml phorbol 12-myristate 13-acetate (Sigma). The cells were washed by centrifugation (200×g for 5 min) and resuspended in 100 ml fresh medium. After 24-48 hours, the cells were harvested, centrifuged, and resuspended in culture medium at 2 million cells/ml.
LPS Stimulation of TNF Production by U937 Cells:
Compounds were prepared as 10 mM stock solutions in DMSO and diluted in culture medium to yield a final DMSO concentration of 0.1% in the cell assay. LPS (E coli, 100 ng/ml final concentration) was then added at a volume of 0.02 ml. After 4 hour incubation at 37° C., the amount of TNF-α released in the culture medium was quantitated by ELISA. Inhibitory potency is expressed as IC50 (μM).
In vitro whole cell assay for measuring the ability of the compounds to inhibit TNF production in human U937 cells stimulated with LPS are shown in the column identified as: • “U937 Cell IC50, uM or % inhib @ conc., (uM)”

SMILES | U937 Cell % inhib @ conc. (uM) [% @]
C[C@@H](NC(=O)N[C@H](C)c1[nH]nc(-c2ccc(F)cc2)c1-c1ccncc1)c1ccccc1 [Example B-0417] | 28.0
C[C@@H](NS(=O)(=O)c1ccc2ccccc2c1)c1[nH]nc(-c2ccc(F)cc2)c1-c1ccncc1 [Example B-0475] | 74.0
CC(NC(=O)c1ccc(Cl)cc1Cl)c1[nH]nc(-c2ccc(F)cc2)c1-c1ccncc1 (stereo not drawn) [Example B-0693] | 28.0

Same assay, conditions: @ 1.0 uM; TNF production, U937 cells stimulated with LPS

SMILES | U937 Cell % inhib @ conc. [% @] | U937 Cell % inhib @ conc. (uM) [% @]
O=C(NCc1[nH]nc(-c2ccc(F)cc2)c1-c1ccncc1)c1ccc(F)cc1C(F)(F)F [Example B-0062] | 36.0 | 
Cc1cccc(C(=O)NCc2[nH]nc(-c3ccc(F)cc3)c2-c2ccncc2)c1 [Example B-0067] | 1.0 | 
CC1(C)C2CCC1(CS(=O)(=O)NCc1[nH]nc(-c3ccc(F)cc3)c1-c1ccncc1)C(=O)C2 (stereo not drawn) [Example B-0227] | 1.0 | 
O=C(NCc1[nH]nc(-c2ccc(F)cc2)c1-c1ccncc1)c1cccs1 [Example B-0303] | 10.0 | 
O=C(NC(Cc1ccccc1)c1[nH]nc(-c2ccc(F)cc2)c1-c1ccncc1)c1ccncc1 (stereo not drawn) [Example B-0854] |  | 25.0
O=C(NC(Cc1ccccc1)c1[nH]nc(-c2ccc(F)cc2)c1-c1ccncc1)c1ccccn1 (stereo not drawn) [Example B-0855] |  | 8.0

Same assay, conditions: Homo sapiens, U-937, @ 1.0 uM; TNF production, U937 cells stimulated with LPS; read-out: U937 Cell % inhib @ conc.

SMILES | inhibition at 1 µM [%]
CC1(C)C2CCC1(CS(=O)(=O)NCc1[nH]nc(-c3ccc(F)cc3)c1-c1ccncc1)C(=O)C2 (stereo not drawn) [Example B-0226] | 20
Cc1cccc(C(=O)NCc2[nH]nc(-c3ccc(F)cc3)c2-c2ccncc2)c1 [Example B-0290] | 44
COc1ccc(CC(=O)N[C@H](C)c2[nH]nc(-c3ccc(F)cc3)c2-c2ccncc2)cc1OC [Example B-0371] | 28

Same assay, conditions: Table 5; LPS-stimulated U937 cells, TNF-α; read-out: U937 Cell Assay IC50

SMILES | IC50 [nM]
Cc1ccc(-c2n[nH]c(C)c2-c2ccncc2)c(C)c1 [Example A-31] | 1050
Cc1[nH]nc(-c2ccc(N(C)C)cc2)c1-c1ccncc1 [Example A-37] | 99
